# From patent publication US12569438B2, “Nanomaterials containing constrained lipids and uses thereof” (GEORGIA TECH RESEARCH CORPORATION, priority 2019, dated 2026)
# System: splenic T cells
# Experiment: DNA barcode/siGFP high throughput in vivo screen: delivery and enrichment of pooled LNPs in GFP^Low splenic T cells
# Design: species or system mice
# Details: pooled LNPs 1.5 mg/kg total iv, 3 days
# Source text: DNA Barcoding. Each chemically distinct LNP was formulated to carry its own unique DNA barcode and siRNA. For example, LNP1 carried DNA barcode 1 and siICAM2, while the chemically distinct LNP2 carried DNA barcode 2 and siGFP. Single stranded DNA sequences were purchased from Integrated DNA Technologies (IDT). To ensure equal amplification of each sequence, we included universal forward and reverse primer regions. Each barcode was distinguished using a unique 8 nucleotide sequence. An 8 nucleotide sequence can generate 65,536 distinct barcodes. 156 distinct sequences designed to prevent sequence ‘bleaching’ on the Illumina MiniSeq sequencing machine were used.
# Animal Experiments. […] Mice were injected intravenously via the lateral tail vein. The nanoparticle concentration was determined using NanoDrop (Thermo Scientific).
# Cell Isolation & Staining. […]
# LNP delivery of siRNA to target cells (in this case, T lymphocytes) as well as 8 off-target cell types in vivo was evaluated. siGFP chemically modified to reduce immunostimulation and enhance on-target silencing via preferential antisense RISC loading (FIG. S2A) was used. […] The GFP acted as the functional delivery readout. […] Thus, 3 days after injecting mice, GFP^Low cells were isolated using fluorescence activated cell sorting (FACS), and deep sequenced to quantify the efficiency with which all N LNPs delivered barcodes into the cells. […]
structure (smiles),measurement,setting,value
"CCCCC/C=C\C/C=C\CCCCCCCC(=O)OCC(COC(=O)C[C@]12CC3CC(C[C@@H](C3)C1)C2)COC(=O)OCCCN(CC)CC (some centres unmarked) [Lipomer 11-A, 3-[(1-Adamantanyl)acetoxy]-2-{[3-(diethylamino)propoxycarbonyloxy]methyl}propyl (9Z,12Z)-9,12-octadecadienoate]",Normalized DNA delivery,GFP^Low splenic T cells,significantly more delivery than 11-L and 11-S
same,Enrichment in T Cells,"splenic T cells, top 10% vs bottom 10% LNPs, DSPC formulations",most enriched
